Assay results reported in paper PMC10743905, “Design, Synthesis, and In Vitro and In Vivo Bioactivity Studies of Hydrazide–Hydrazones of 2,4-Dihydroxybenzoic Acid” (International Journal of Molecular Sciences, 2023).
Converted amounts (≈) assume the structure as drawn.

Key:
[1] = test system: HepG2 cells; design: method as in doi:10.1016/j.cclet.2016.10.020; settings: standard; cited from earlier work
[2] = test system: Bacillus subtilis ATCC 6633; assay: Broth microdilution MIC/MBC; type: cell-based
Method in brief: (§1)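 MICs were determined by broth microdilution using two-fold compound dilutions (final 1000-0.488 µg/ml) in Mueller-Hinton broth for bacteria or RPMI 1640 with MOPS for yeasts. Inocula were 0.5 McFarland suspensions in 0.85% NaCl, following EUCAST/CLSI guidelines; compounds were dissolved in DMSO.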

[3] = test system: Gram-negative bacteria; assay: Broth microdilution, summary over the Gram-negative panel; type: cell-based
Excerpt: (§2) In vitro antimicrobial activity assays - Methodology
(§3) The examined compounds 1 - 24 were screened in vitro for antibacterial and antifungal activities using the broth microdilution method according to procedure reported earlier by our research group and European Committee on Antimicrobial Susceptibility Testing (EUCAST) and Clinical and Laboratory Standards Institute (CLSI) guidelines against a panel of reference and clinical or saprophytic strains of microorganisms, in-cluding Gram-positive bacteria, Staphylococcus aureus ATCC 43300 (Methicillin Resistant S. aureus – MRSA), Staphylococcus aureus ATCC 29213 (Methicillin Susceptible S. aureus – MSSA), Staphylococcus epidermidis ATCC 12228, Enterococcus faecalis ATCC 29212, Micro-coccus luteus ATCC 10240, Bacillus subtilis ATCC 6633 and Bacillus cereus ATCC 10876), Gram-negative bacteria (Bordetella bronchiseptica ATCC 4617, Escherichia coli ATCC 25922, Klebsiella pneumoniae ATCC 13883, Proteus mirabilis ATCC 12453, Salmonella typhimurium ATCC 14028 and Pseudomonas aeruginosa ATCC 9027) and fungi belonging to yeasts (Can-dida albicans ATCC 10231, Candida albicans ATCC 2091, Candida parapsilosis ATCC 22019, Candida glabrata ATCC 90030 and Candida krusei ATCC 14243). The microorganisms be-longing to ATCC came from American Type Culture Collection, routinely used for the evaluation of antimicrobials. All the used microbial cultures were first subcultured on nu-trient agar or Sabouraud agar at 35°C for 18-24 h or 30°C for 24-48 h for bacteria and fungi, […]
The surface of Mueller-Hinton agar (for bacteria) and RPMI 1640 with MOPS (for fungi) were inoculated with the suspensions of bacterial or fungal species. Microbial suspensions were prepared in sterile saline with an optical density of McFarland standard scale 0.5.
Samples containing examined compounds were dissolved in dimethyl sulfoxide (DMSO).
Furthermore, bacterial and fungal suspensions were put onto Petri dishes with solid me-dia containing 2 mg/mL of the tested compounds followed incubation at 37°C for 24h and 30°C for 48h for bacteria and fungi, respectively. The inhibition of microbial growth was judged by comparison with a control culture prepared without any sample tested. Ciprof-loxacin, vancomycin, nitrofurantoin, cefuroxime, ampicillin or nystatin (Sigma) were used as a reference antibacterial or antifungal compounds, respectively.
(§4) Subsequently, the MIC (Minimal Inhibitory Concentration) of the compounds was ex-amined by the microdilution broth method, using their two-fold dilutions in Mueller- […]
(§5) Hinton broth or (for bacteria) and RPMI 1640 broth with MOPS (for fungi) prepared in 96-well polystyrene plates. Final concentrations of the compounds ranged from 1000 to 0.488 µg/ml. Microbial suspensions were prepared in 0.85% NaCl with an optical density of 0.5 McFarland standard. Next each bacterial or fungal suspension was added per each well containing broth and various concentrations of the examined compounds. After incuba-

[4] = test system: Candida albicans ATCC 10231; assay: Broth microdilution MIC/MFC; type: cell-based
Method in brief: as §1

[5] = test system: Candida parapsilosis ATCC 22019; assay: Broth microdilution MIC/MFC; type: cell-based; settings: Lodderomyces parapsilosis, ATCC22019, read-out: MIC
Method in brief: as §1

[6] = test system: Candida krusei ATCC 14243; assay: Broth microdilution MIC/MFC; type: cell-based; settings: Pichia kudriavzevii, ATCC14243, read-out: MIC
Method in brief: as §1

[7] = test system: Candida albicans ATCC 2091; assay: Broth microdilution MIC/MFC; type: cell-based
Method in brief: as §1

[8] = test system: Candida glabrata ATCC 90030; assay: Broth microdilution MIC/MFC; type: cell-based; settings: Nakaseomyces glabratus, ATCC90030, read-out: MIC
Method in brief: as §1

[9] = test system: Bacillus cereus ATCC 10876; assay: Broth microdilution MIC/MBC; type: cell-based
Method in brief: as §1

[10] = test system: Enterococcus faecalis ATCC 29212; assay: Broth microdilution MIC/MBC; type: cell-based
Method in brief: as §1

[11] = test system: Bordetella bronchiseptica ATCC 4617; assay: Broth microdilution MIC/MBC; type: cell-based
Method in brief: as §1

[12] = test system: Klebsiella pneumoniae ATCC 13883; assay: Broth microdilution MIC/MBC; type: cell-based
Method in brief: as §1

[13] = test system: Escherichia coli ATCC 25922; assay: Broth microdilution MIC/MBC; type: cell-based
Method in brief: as §1

[14] = test system: reference Gram-positive bacteria; assay: Broth microdilution, summary over the Gram-positive panel; type: cell-based; settings: read-out: MIC
Excerpt: as §2
as §3, with “antimicrobials.” for “antimicrobials. All the used microbial cultures were first subcultured on nu-trient agar or Sabouraud agar at 35°C for 18-24 h or 30°C for 24-48 h for bacteria and fungi,”
Samples containing examined compounds were dissolved in dimethyl sulfoxide (DMSO). […]
as §4, §5

[15] = test system: Micrococcus luteus ATCC 10240; assay: Broth microdilution MIC/MBC; type: cell-based
Method in brief: as §1

[16] = test system: Salmonella typhimurium ATCC 14028; assay: Broth microdilution MIC/MBC; type: cell-based
Method in brief: as §1

[17] = test system: Staphylococcus epidermidis ATCC 12228; assay: Broth microdilution MIC/MBC; type: cell-based
Method in brief: as §1

[18] = test system: Proteus mirabilis ATCC 12453; assay: Broth microdilution MIC/MBC; type: cell-based
Method in brief: as §1

[19] = test system: Staphylococcus aureus ATCC 29213; assay: Broth microdilution MIC/MBC; type: cell-based
Method in brief: as §1

[20] = test system: Pseudomonas aeruginosa ATCC 9027; assay: Broth microdilution MIC/MBC; type: cell-based; settings: ATCC9027
Method in brief: as §1

[21] = test system: Staphylococcus aureus ATCC 43300; assay: Broth microdilution MIC/MBC; type: cell-based; settings: Staphylococcus aureus ATCC 43300 (MRSA)
Method in brief: as §1

[22] = test system: Neisseria gonorrhoeae; design: method as in PMID 23510516; settings: cited from earlier work
[23] = test system: Escherichia coli; design: method as in PMID 23510516; settings: cited from earlier work
[24] = test system: Enterococcus faecalis; design: method as in PMID 23510516; settings: cited from earlier work
[25] = test system: Pasteurella multocida; design: method as in PMID 23510516; settings: cited from earlier work
[26] = test system: Staphylococcus aureus MRSA strain; design: method as in PMID 23510516; settings: cited from earlier work
[27] = test system: MCF-7 cell line; design: method as in PMID 34578985; settings: MCF-7 breast cancer cell line; cited from earlier work
[28] = test system: MDA-MB-231 cell line; design: method as in PMID 34578985; settings: MDA-MB-231 breast cancer cell line; cited from earlier work

COc1cccc2c1C(=O)c1c(O)c3c(c(O)c1C2=O)C[C@@](O)(C(=O)CO)C[C@@H]3O[C@H]1C[C@H](N)[C@H](O)[C@H](C)O1 [doxorubicin]
IC50 [1]: 6 µM

O=C(N/N=C/c1cc(Br)c(O)c(Br)c1)c1ccc(O)cc1O [Compound 17, N-[(3,5-dibromo-4-hydroxyphenyl)methylidene]-2,4-dihydroxybenzohydrazide]
melting point: 260 °C | MBC/MIC [2]: > 8 | MBC ([2]; ATCC6633): > 1000 µg/mL | MIC ([2]; ATCC6633, read-out: MIC): 125 µg/mL (≈ 291 µM) | MBC [3]: > 1000 µg/mL | MIC [3]: 500 to 1000 µg/mL (≈ 1160 to 2330 µM) | MFC/MIC [4]: > 1 | MFC ([4]; ATCC10231, read-out: MFC): > 1000 µg/mL | MIC ([4]; ATCC10231, read-out: MIC): 1000 µg/mL (≈ 2330 µM) | MIC [5]: > 1000 µg/mL | MIC [6]: > 1000 µg/mL | MFC/MIC [7]: > 1 | MFC ([7]; ATCC2091, read-out: MFC): > 1000 µg/mL | MIC ([7]; ATCC2091, read-out: MIC): 1000 µg/mL (≈ 2330 µM) | MIC [8]: > 1000 µg/mL | MBC/MIC [9]: > 4 | MBC ([9]; ATCC10876): > 1000 µg/mL | MIC ([9]; ATCC10876, read-out: MIC): 250 µg/mL (≈ 581 µM) | MBC/MIC [10]: > 1 | MBC ([10]; ATCC29212, read-out: MBC): > 1000 µg/mL | MIC ([10]; ATCC29212, read-out: MIC): 500 µg/mL (≈ 1160 µM) | MBC/MIC [11]: > 1 | MBC ([11]; ATCC4617): > 1000 µg/mL | MIC ([11]; ATCC4617): 1000 µg/mL (≈ 2330 µM) | MBC/MIC [12]: > 1 | MBC ([12]; ATCC13883): > 1000 µg/mL | MIC ([12]; ATCC13883): 1000 µg/mL (≈ 2330 µM) | MBC/MIC [13]: > 1 | MBC ([13]; ATCC25922): > 1000 µg/mL | MIC ([13]; ATCC25922): 1000 µg/mL (≈ 2330 µM) | MIC [14]: 15.6 to 1000 µg/mL (≈ 36.3 to 2330 µM) | MBC/MIC [15]: > 8 | MBC ([15]; ATCC10240): > 1000 µg/mL | MIC ([15]; ATCC10240, read-out: MIC): 125 µg/mL (≈ 291 µM) | MBC/MIC [16]: > 1 | MBC ([16]; Salmonella enterica): > 1000 µg/mL | MIC ([16]; Salmonella enterica): 1000 µg/mL (≈ 2330 µM) | MBC/MIC [17]: > 8 | MBC ([17]; ATCC12228): > 1000 µg/mL | MIC ([17]; ATCC12228, read-out: MIC): 250 µg/mL (≈ 581 µM) | MBC/MIC [18]: > 1 | MBC ([18]; ATCC12453): > 1000 µg/mL | MIC ([18]; ATCC12453): 1000 µg/mL (≈ 2330 µM) | MBC/MIC [19]: 32 | MBC ([19]; ATCC29213): > 1000 µg/mL | MIC ([19]; ATCC29213): 31.2 µg/mL (≈ 72.7 µM) | MIC [20]: > 1000 µg/mL | MBC [21]: > 1000 µg/mL | MBC/MIC [21]: > 16 | MIC [21]: 62.5 µg/mL (≈ 145 µM)

O=C(O)c1ccc(O)cc1O [2,4-dihydroxybenzoic acid]
MIC [22]: 1000 µg/mL (≈ 6490 µM) | MIC [23]: 1000 µg/mL (≈ 6490 µM) | MIC [24]: 1000 µg/mL (≈ 6490 µM) | MIC [25]: 1000 µg/mL (≈ 6490 µM) | MIC [26]: 500 µg/mL (≈ 3240 µM) | cytotoxicity [27]: nontoxic | IC50 [28]: 4770 µM
